The source of these data is PubChem BioAssay AID179 (DTP/NCI, 2004).

This test has as its system CEM cells HIV-1 protection, formazan growth assay. As to the kind of experiment: NCI AIDS Antiviral Assay. The conditions noted are these: for pIC50: measured here: growth of uninfected CEM cells. In short, it runs like this:
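Screen of anti-HIV-1 activity in human CEM cells using a formazan-based growth measurement at five drug concentrations. Hits with 50% or greater protection were repeated, and confirmation required reproducible complete protection.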

pEC50, pIC50: −log10 of the molar value. Several values for one entry are separate records, joined by “and”; a condition that tells them apart may be missing. Equal entries are not always repeated. Activity calls are given as the source filed them.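 Rule for the calls: active = compounds giving half or more protection of infected cells from virus-caused growth loss, again on retest; inactive = the rest.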 Where a SMILES comes first, the peptide text is derived from it. Bridges are numbered along the chain shown (N, C = ends). Roman numbers before positions name the chains, in order. Bounds are passed on as bounds.

Broadly, the pEC50 is −log10 of the EC50, conventionally taken in molar units. A word on the pIC50: it is the negative decadic logarithm of the IC50, by convention in mol/L. The low end stands for a large IC50, the high end for a small IC50.

Turning to `Nc1nc2c(ncn2C2C=CC(COS(N)(=O)=O)C2)c(=O)[nH]1` (stereo not drawn), the pEC50 was less than 3.70 and the pIC50 is less than 3.70. Take `Cn1c(=O)nc2n(-c3ccc(Cl)cc3)c3cc(Cl)ccc3nc-2c1=O`: the result was inactive. Turning to `NCc1ccc(S(N)(=O)=O)cc1`, the pEC50 is less than 3.70 and the pIC50 is less than 3.70. For `CC1=CC(C)(C)N=C2SC(COc3ccccc3)=NN12`, the pEC50 is less than 3.70 and the negative logarithm of the IC50 (pIC50) was 4.46. For `O=C1c2cccc3cccc(c23)C(=O)N1CCCCCCCCN1C(=O)c2cccc3cccc(c23)C1=O`, in that order: less than 3.70 and 4.83. For `COC(=O)C1CC2(c3ccccc3)C(=O)c3ccccc3N2O1` (stereo not drawn), the outcome was inactive.

As to `O=C(NC(=O)c1cn(CCN2CCN(C(=O)NCCCCCCNC(=O)N3CCN(CCn4cc(C(=O)NC(=O)OCc5ccccc5)c(=O)[nH]c4=O)CC3)CC2)c(=O)[nH]c1=O)OCc1ccccc1`, the result was inactive. For the molecule `O=C1CN(C2CCCCC2)CC(=O)N2CCCCN12`, the pEC50 is less than 3.70 and the pIC50 was less than 3.70.

Consider `CC(C)N1CC2CC(CN(C(=O)c3ccc(Cl)cc3)C2)C1`, for which the pEC50 is less than 3.37 and the negative-log IC50 (pIC50) was less than 3.37. For `COc1ccc(CCNCCCC2c3ccccc3-c3ccccc32)cc1OC`, the pEC50 was less than 4.06 and the pIC50 was 5.31. Consider `CC(=NNC(=S)Nc1ccccc1)c1cccc(C(C)=NNC(=S)Nc2ccccc2)n1`, for which the pEC50 is less than 3.70 and the pIC50 is 5.03.

With `O=C(NCCCCCCNC(=O)c1cnc2ccccc2n1)c1cnc2ccccc2n1`, the pEC50 is less than 4.08 and the pIC50 is less than 4.08. As for `COc1ccc2c(O)c(S(=O)(=O)c3ccc(Cl)cc3)c(=O)oc2c1`, the pEC50 was less than 3.70 and the negative-log IC50 (pIC50) is 3.89. For `Cc1cc(-c2ccc[nH]2)on1`, in that order: less than 3.70 and less than 3.70. Regarding `C[Si](C)(C)C#CCOC=C1CC1`, the result was inactive. As for `O=C(CNC(=O)OCc1ccccc1)NCCCCC(NC(=O)OCc1ccccc1)C(=O)O` (stereo not drawn), the pEC50 is less than 3.70 and the pIC50 is less than 3.70. `COc1ccc(NC(=O)C(=O)Cc2nc3ccc(C(=O)c4ccccc4)cc3[nH]c2=O)c([N+](=O)[O-])c1`: the pEC50 is less than 3.71 and the pIC50 was 4.29.

Take `COc1cc(C(O)c2ccc3c(c2)OCO3)cc(OC)c1OC` (stereo not drawn): the pEC50 was less than 3.70 and the negative-log IC50 (pIC50) is 4.06. With `CCOC(=O)C1(c2ccc(O)c(O)c2)CCN(C)CC1`, the pEC50 is less than 3.10 and the pIC50 is 3.42. The matching figures for `CC(C)(CO)N1C(=O)c2ccccc2C1(O)c1ccc(Cl)cc1` (stereo not drawn): less than 3.70 and 4.04. For `O=C(c1ccc(Cl)cc1)N(C(=O)N1CCC(c2ccccc2)CC1)c1ccccc1`, in that order: less than 3.70 and 4.95. The matching figures for `CC1OC(OC2C(O)COC(OC3C(C)OC(OC4C(OC(=O)[C@]56CCC(C)(C)C[C@@H]5C5=CCC7[C@@]8(C)C[C@H](O)[C@H](OC9OC(CO)C(O)C(O)C9O)[C@@](C)(CO)[C@@H]8CC[C@@]7(C)[C@]5(C)CC6)OCC(O)C4O)C(O)C3O)C2O)C(O)C(O)C1O` (stereo partly drawn): less than 4.00 and 4.53.

Regarding `CCOC(=O)C1C(=O)CC(C)(O)C(C(=O)OCC)C1c1ccc(OC)cc1` (stereo not drawn), the pEC50 was less than 3.70 and the negative-log IC50 (pIC50) is less than 3.70. Regarding `CC(=O)C1Cn2c(nc3ccccc32)C[Se]1` (stereo not drawn), the outcome was inactive. Take `COc1ccc2c(c1)CC1c3[nH]c4ccccc4c3CCN1C2` (stereo not drawn): the pEC50 is 4.25 and < 3.99; the pIC50 is 3.99 and 4.33. Turning to `COc1ccc2cc1Oc1ccc(cc1)CC1c3c(cc4c(c3Oc3cc5c(cc3OC)CCN(C)C5C2)OCO4)CCN1C` (stereo not drawn), the outcome was inactive. As for `O=C(O)CCC1(CCC(=O)O)CCCCCCCCC(CCC(=O)O)(CCC(=O)O)C(=O)C1=O`, the pEC50 is less than 3.70 and the negative logarithm of the IC50 (pIC50) was less than 3.70. On to `CC(C)NC(=O)OCc1nnn2c1CCC2`, for which the outcome was inactive. As for `O=C(O)c1ccccc1SCc1cc(O)ccc1O`, the pEC50 is less than 3.70 and the pIC50 was 4.51.

With `O=[N+]([O-])c1cc2n[nH]nc2c2nonc12`, the pEC50 was less than 3.70 and the pIC50 is 5.32.

As for `CC(C)=CCN1CCCn2c(=S)[nH]c3cccc(c32)C1=O`, the pEC50 is less than 3.70 and the pIC50 was less than 3.70. Regarding `CC1OC(OC2C(CO)OC(O[C@H]3CC[C@@]4(C)C(=CC[C@H]5[C@@H]6C[C@@H]7O[C@](O)(CC[C@H](CO)COC8OC(CO)C(O)C(O)C8O)[C@@H](C)[C@@H]7[C@@]6(C)CC[C@@H]54)C3)C(OC3OC(C)C(O)C(O)C3O)C2O)C(O)C(O)C1O` (stereo partly drawn), the pEC50 is less than 3.70 and the negative logarithm of the IC50 (pIC50) was less than 3.70. With `O=C1OC(=Nc2ccccc2Cl)c2ccccc21`, the pEC50 was less than 3.70 and the pIC50 is less than 3.70.

`C#CCNC(=O)NC(CCCNC(=O)OCc1ccccc1)C(=O)OCc1ccccc1` (stereo not drawn): the pEC50 was less than 4.08 and the negative-log IC50 (pIC50) was less than 4.08. As to `O=C1C=CC(c2ccccc2)(c2ccccc2)O1`, the pEC50 is less than 3.70 and the pIC50 is 3.82.

In the case of `Nc1ccc(S(=O)(=O)Nc2ccccc2)cc1`, the pEC50 is less than 3.70 and the pIC50 is less than 3.70. For `COc1cc(C2c3cc4c(cc3[C@H](NS(C)(=O)=O)C3COC(=O)[C@H]23)OCO4)cc(OC)c1OC` (stereo partly drawn), the outcome was inactive.

As for `O=c1cc(-c2ccccc2)nc(-n2[nH]c3c(c2=O)CCCC3)[nH]1`, the pEC50 was less than 4.30 and the negative-log IC50 (pIC50) was 5.89. For `C=C(Nc1nc2ccc(C)cc2s1)C(=O)C(CC)C(=O)C(CC)CC1C(=O)NC(=O)NC1=O` (stereo not drawn), in that order: less than 4.40 and less than 4.40. The matching figures for `CCOC(=O)c1nc2ccccc2nc1Oc1cc(OC)c(OC)c(OC)c1`: less than 4.00 and less than 4.00. Consider `C[C@H](CCC1=NCCN1)[C@H]1CC[C@H]2[C@@H]3[C@H](O)C[C@@H]4C[C@H](O)CC[C@]4(C)[C@H]3CC[C@]12C`, for which the pEC50 is less than 3.70 and the negative-log IC50 (pIC50) is 4.62. For `CC(=O)Nc1ccc(/C=C2\SC(=S)N(/C=C3/C(=O)N(c4ccccc4)N=C3C)C2=O)cc1`, in that order: less than 3.70 and 4.14. With `Cc1nc(NCCNCCO)nc2c1C(=O)Nc1ccccc1N2`, the pEC50 was less than 3.70 and the pIC50 is 4.49. The matching figures for `NC(Cc1c2ccccc2cc2ccccc12)C(=O)O` (stereo not drawn): less than 3.70 and 3.99. The matching figures for `O=C(O)CCCCCCCCCCCC(=O)O`: less than 3.83 and less than 3.83.

Consider `CCC(C)(O)c1cn(-c2ccc(Cl)cc2)nn1` (stereo not drawn), for which the pEC50 was less than 3.15 and the negative-log IC50 (pIC50) is 3.49.

As for `C(CCCCc1nnc(N2CCCCC2)o1)CCCc1nnc(N2CCCCC2)o1`, the pEC50 is less than 3.70 and the negative-log IC50 (pIC50) was less than 3.70.

Consider `Cc1c(CCCl)c(=O)n2c([nH]c3ccccc32)c1C#N`, for which the pEC50 was less than 3.70 and the pIC50 is 5.12. For `CC(O)c1nc2c3ccccc3ccc2n1C` (stereo not drawn), in that order: less than 3.11 and 3.41. As for `N#Cc1c2c(cn3c1nc1ccccc13)CCCC2`, the pEC50 was less than 3.70 and the pIC50 is 3.97. Take `CCN(CC)CCC(=O)c1ccc(OC)cc1`: the pEC50 was less than 3.04 and the negative logarithm of the IC50 (pIC50) is 4.71. The matching figures for `CC1(C)OC(=O)C(=Cc2ccc(Br)cc2)C(=O)O1`: less than 3.38 and 3.59.

As for `COc1c(Sc2c(SCSc3cnc4ccccc4c3Sc3cnc4ccccc4c3OC)cnc3ccccc23)cnc2ccccc12`, the pEC50 is less than 4.00 and the negative-log IC50 (pIC50) is less than 4.00. Consider `CN1CC(C(=O)C2C(=O)c3ccccc3C2=O)C(=O)C(=O)C(C(=O)C2C(=O)c3ccccc3C2=O)C1` (stereo not drawn), for which the outcome was inactive. Take `Cc1ccc(C)n1-n1c(-c2ccccc2)n[nH]c1=O`: the pEC50 was less than 3.70 and the pIC50 is 4.05. In the case of `COC(C/C(=C/CO[Si](C(C)C)(C(C)C)C(C)C)C(=O)N(C(=O)OC(C)(C)C)c1ccccc1I)OC`, the pEC50 was less than 3.70 and the negative logarithm of the IC50 (pIC50) is 4.11. As to `CC(C)(C)Sc1nnc(SC(C)(C)C)c2c(=O)[nH]nc(SC(C)(C)C)c12`, the result was inactive.

Regarding `O=[N+]([O-])c1ccc(Sc2c3ccccc3nc3ccccc23)cc1`, the pEC50 was less than 5.36 and the negative logarithm of the IC50 (pIC50) is less than 5.36. `CCOC(=O)C(Cc1ccc(O)cc1)NC(=O)C(N)CSSCC(N)C(=O)NC(Cc1ccc(O)cc1)C(=O)OCC` (stereo not drawn) (I: H-Cys-Tyr-OEt / II: H-Cys-Tyr-OEt; disulfide I:1-II:1; configuration not given here): the pEC50 was less than 3.70 and the negative-log IC50 (pIC50) was less than 3.70.

Consider `CCOP(=O)(OCC)C(N)C(C)CC` (stereo not drawn), for which the pEC50 was less than 3.32 and the negative logarithm of the IC50 (pIC50) was less than 3.32. With `COc1nc2ncc([C@@H](O)[C@H](O)CO)nc2c(=O)[nH]1`, the pEC50 was less than 3.70 and the pIC50 is less than 3.70. As for `COc1ccc(-c2c(O)c3ccc(OC)cc3oc2=O)cc1`, the pEC50 is less than 3.70 and the pIC50 was 3.81. Consider `C[N+](C)(C)CC1CCCc2ccccc2C1=O` (stereo not drawn), for which the result was inactive. With `CC(=O)OC/C=C/[C@H](O[Si](C)(C)C(C)(C)C)[C@@H](O)/C=C/COC(C)=O`, the pEC50 was less than 3.70 and the pIC50 was 3.79. In the case of `COC(C(=O)C(O)C(C)O)C1Cc2cc3cc(OC4CC(OC(C)=O)C(OC5CC(O)C(OC)C(C)O5)C(C)O4)cc(O)c3c(O)c2C(=O)C1OC1CC(OC2CC(OC3CC(C)(O)C(OC(=O)C(C)C)C(C)O3)C(O)C(C)O2)C(O)C(C)O1` (stereo not drawn), the pEC50 is less than 5.68; the pIC50 was 7.97 and 8.41. As for `C#[N+]CCOP(=O)(OCC1OC(n2cc(C)c(=O)[nH]c2=O)CC1N=[N+]=[N-])O[C@H]1CC[C@@]2(C)C(=CC[C@H]3[C@@H]4CC[C@H](C(C)CCCC(C)C)[C@@]4(C)CC[C@@H]32)C1` (stereo partly drawn), the pEC50 was 5.38 and 5.00; the pIC50 is less than 3.70.

As to `COc1ccc2nc3c([N+](=O)[O-])ccc(NCCN(C)C)c3c(NCCN(C)C)c2c1`, the pEC50 is less than 3.70 and the pIC50 was 5.97.
